Measurements from patent US6740642B2, “Macrolides with antibacterial activity” (BAsilea Parmaceutica AG, priority 2000, dated 2004).
≈ marks a conversion by molar mass, not a printed value. Where two headings read alike, the source gives them in different places. Values belong to the compound of their own block, whether it stands above or below them.

Experiments:
[1] = system: St. pneumoniae SL199T; experiment: MIC, standard microdilution; format: cell-based, Streptococcus pneumoniae
How it was run: (§1)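 Read-out is the MIC from a standard microdilution susceptibility test. The procedure was performed as laid down in the NCCLS guideline for aerobic organisms.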

[2] = system: St. pneumoniae 1/1; experiment: MIC, standard microdilution; format: cell-based, Streptococcus pneumoniae
How it was run: as §1

[3] = system: St. pneumoniae 12288; experiment: MIC, standard microdilution; format: cell-based, Streptococcus pneumoniae
How it was run: as §1

[4] = system: St. pneumoniae 1/4; experiment: MIC, standard microdilution; format: cell-based, Streptococcus pneumoniae
How it was run: as §1

[5] = system: P. aeruginosa ATCC27853 (+Ery. 32 μg/ml); experiment: MIC, standard microdilution; format: cell-based
How it was run: as §1

[6] = system: E. coli ATCC25922; experiment: MIC, standard microdilution; format: cell-based
How it was run: as §1

[7] = system: H. influenzae QK 12/87; experiment: MIC, agar dilution, HTM medium; format: cell-based, Haemophilus influenzae
Text: (§2) The biological activities of compounds of the present invention against Haemophilus influenzae have been determined by standard agar dilution method using HTM medium (National Committee for Clinical Laboratory Standards. 1997. Methods for dilution antimicrobial susceptibility tests for bacteria that grow aerobically, 4th edition. Approved standard M7-A4. National Committee for Clinical Laboratory Standards, Wayne, Pa.).

[8] = system: H. influenzae B 1501; experiment: MIC, agar dilution, HTM medium; format: cell-based, Haemophilus influenzae
Text: as §2

[9] = system: H. influenzae H20 HDL; experiment: MIC, agar dilution, HTM medium; format: cell-based, Haemophilus influenzae
Text: as §2

[10] = system: H. influenzae 23145; experiment: MIC, agar dilution, HTM medium; format: cell-based, Haemophilus influenzae
Text: as §2

[11] = system: H. influenzae ATCC 49247; experiment: MIC, agar dilution, HTM medium; format: cell-based, Haemophilus influenzae
Text: as §2

[12] = system: H. influenzae 23369; experiment: MIC, agar dilution, HTM medium; format: cell-based, Haemophilus influenzae
Text: as §2

[13] = system: H. influenzae 1; experiment: MIC, agar dilution, HTM medium; format: cell-based, Haemophilus influenzae
Text: as §2

[14] = system: H. influenzae ATCC 9334; experiment: MIC, agar dilution, HTM medium; format: cell-based, Haemophilus influenzae
Text: as §2

[15] = system: H. influenzae 11; experiment: MIC, agar dilution, HTM medium; format: cell-based, Haemophilus influenzae
Text: as §2

[16] = system: H. influenzae H28 HEL; experiment: MIC, agar dilution, HTM medium; format: cell-based, Haemophilus influenzae
Text: as §2

[17] = system: H. influenzae 3457; experiment: MIC, agar dilution, HTM medium; format: cell-based, Haemophilus influenzae
Text: as §2

[18] = system: H. influenzae 4139; experiment: MIC, agar dilution, HTM medium; format: cell-based, Haemophilus influenzae
Text: as §2

[19] = system: H. influenzae Christy; experiment: MIC, agar dilution, HTM medium; format: cell-based, Haemophilus influenzae
Text: as §2

[20] = system: H. influenzae 3640; experiment: MIC, agar dilution, HTM medium; format: cell-based, Haemophilus influenzae
Text: as §2

[21] = system: H. influenzae QK 50; experiment: MIC, agar dilution, HTM medium; format: cell-based, Haemophilus influenzae
Text: as §2

[22] = system: H. influenzae H13 LAH; experiment: MIC, agar dilution, HTM medium; format: cell-based, Haemophilus influenzae
Text: as §2

[23] = system: H. influenzae H36 ODL; experiment: MIC, agar dilution, HTM medium; format: cell-based, Haemophilus influenzae
Text: as §2

[24] = system: H. influenzae 2947; experiment: MIC, agar dilution, HTM medium; format: cell-based, Haemophilus influenzae
Text: as §2

[25] = system: H. influenzae 3201; experiment: MIC, agar dilution, HTM medium; format: cell-based, Haemophilus influenzae
Text: as §2

[26] = system: H. influenzae Rd KW20; experiment: MIC, agar dilution, HTM medium; format: cell-based, Haemophilus influenzae
Text: as §2

[27] = system: H. influenzae 12214; experiment: MIC, agar dilution, HTM medium; format: cell-based, Haemophilus influenzae
Text: as §2

[28] = system: S. aureus 745; experiment: MIC, standard microdilution; format: cell-based, Staphylococcus aureus
How it was run: as §1

[29] = system: S. aureus 1086; experiment: MIC, standard microdilution; format: cell-based, Staphylococcus aureus
How it was run: as §1

[30] = system: S. aureus ATCC29213; experiment: MIC, standard microdilution; format: cell-based, Staphylococcus aureus
How it was run: as §1

[31] = Streptococcus pneumoniae, read-out: minimum inhibitory concentration (MIC)
[32] = Haemophilus influenzae, read-out: MIC
[33] = Staphylococcus aureus, read-out: minimum inhibitory concentration (MIC)

Structure (SMILES): CC[C@H]1OC(=O)[C@H](C)C(=O)[C@H](C)[C@@H](O[C@@H]2O[C@H](C)C[C@H](N(C)C)[C@H]2O)[C@](C)(OC)C[C@@H](C)C(=O)[C@H](C)[C@H]2[C@H](SCCn3ccc(=O)[nH]c3=O)C(=O)O[C@@]21C [Compound I-6, (3S,3aR,4R,6R,8R,9R,10R,12R,15R,15aS)-15-Ethyloctahydro-8-methoxy-4,6,8,10,12,15a-hexamethyl-3-[[2-[2,4-1H,3H-pyriminedione-1-yl]ethyl]-thio]-9-[[3,4,6-trideoxy-3-(dimethylamino)-β-D-xylo-hexopyranosyl]oxy]-2H-furo[2,3-c]oxacyclotetradecin-2,5,11,13(3H,6H,12H)-tetrone]
minimum inhibitory concentration (MIC) [1]: 1 µg/mL (≈ 1.28 µM)
minimum inhibitory concentration (MIC) [2]: <=0.12 μg/ml
minimum inhibitory concentration (MIC) [3]: 4 µg/mL (≈ 5.12 µM)
minimum inhibitory concentration (MIC) [4]: <=0.12 μg/ml
minimum inhibitory concentration (MIC) [5]: >16 µg/mL
minimum inhibitory concentration (MIC) [6]: >16 µg/mL
MIC [7]: 1 µg/mL (≈ 1.28 µM)
MIC [8]: 2 µg/mL (≈ 2.56 µM)
MIC [9]: 1 µg/mL (≈ 1.28 µM)
MIC [10]: 4 µg/mL (≈ 5.12 µM)
MIC [11]: 2 µg/mL (≈ 2.56 µM)
MIC [12]: 4 µg/mL (≈ 5.12 µM)
MIC [13]: 4 µg/mL (≈ 5.12 µM)
MIC [14]: 2 µg/mL (≈ 2.56 µM)
MIC [15]: 4 µg/mL (≈ 5.12 µM)
MIC [16]: 2 µg/mL (≈ 2.56 µM)
MIC [17]: 0.25 µg/mL (≈ 0.32 µM)
MIC [18]: 2 µg/mL (≈ 2.56 µM)
MIC [19]: 2 µg/mL (≈ 2.56 µM)
MIC [20]: 2 µg/mL (≈ 2.56 µM)
MIC [21]: 2 µg/mL (≈ 2.56 µM)
MIC [22]: 2 µg/mL (≈ 2.56 µM)
MIC [23]: 4 µg/mL (≈ 5.12 µM)
MIC [24]: 4 µg/mL (≈ 5.12 µM)
MIC [25]: 4 µg/mL (≈ 5.12 µM)
MIC [26]: 2 µg/mL (≈ 2.56 µM)
MIC [27]: 4 µg/mL (≈ 5.12 µM)
minimum inhibitory concentration (MIC) [28]: >16 µg/mL
minimum inhibitory concentration (MIC) [29]: <=0.12 μg/ml
minimum inhibitory concentration (MIC) [30]: <=0.12 μg/ml

MIC [1, 31]: ≤ 0.12 µg/mL
MIC [2, 31]: ≤ 0.12 µg/mL
MIC [3, 31]: 0.25 µg/mL (≈ 0.308 µM)
MIC [4, 31]: ≤ 0.12 µg/mL
minimum inhibitory concentration (MIC) [5]: >16 µg/mL
MIC ([6]; Escherichia coli, read-out: minimum inhibitory concentration (MIC)): 16 µg/mL (≈ 19.7 µM)
MIC ([7]; Haemophilus influenzae, QK12/87, read-out: MIC): 1 µg/mL (≈ 1.23 µM)
MIC ([8]; Haemophilus influenzae, B1501, read-out: MIC): 2 µg/mL (≈ 2.46 µM)
MIC ([9]; Haemophilus influenzae, H20HDL, read-out: MIC): 2 µg/mL (≈ 2.46 µM)
MIC [10, 32]: 4 µg/mL (≈ 4.93 µM)
MIC ([11]; Haemophilus influenzae, ATCC49247, read-out: MIC): 4 µg/mL (≈ 4.93 µM)
MIC [12, 32]: 4 µg/mL (≈ 4.93 µM)
MIC [13, 32]: 4 µg/mL (≈ 4.93 µM)
MIC ([14]; Haemophilus influenzae, ATCC9334, read-out: MIC): 2 µg/mL (≈ 2.46 µM)
MIC [15, 32]: 4 µg/mL (≈ 4.93 µM)
MIC ([16]; Haemophilus influenzae, H28HEL, read-out: MIC): 2 µg/mL (≈ 2.46 µM)
MIC [17, 32]: 0.25 µg/mL (≈ 0.308 µM)
MIC [18, 32]: 2 µg/mL (≈ 2.46 µM)
MIC [19, 32]: 4 µg/mL (≈ 4.93 µM)
MIC [20, 32]: 2 µg/mL (≈ 2.46 µM)
MIC ([21]; Haemophilus influenzae, QK50, read-out: MIC): 2 µg/mL (≈ 2.46 µM)
MIC ([22]; Haemophilus influenzae, H13LAH, read-out: MIC): 2 µg/mL (≈ 2.46 µM)
MIC ([23]; Haemophilus influenzae, H36ODL, read-out: MIC): 4 µg/mL (≈ 4.93 µM)
MIC [24, 32]: 4 µg/mL (≈ 4.93 µM)
MIC [25, 32]: 4 µg/mL (≈ 4.93 µM)
MIC ([26]; Haemophilus influenzae, RDKW20, read-out: MIC): 4 µg/mL (≈ 4.93 µM)
MIC [27, 32]: 4 µg/mL (≈ 4.93 µM)
MIC [28, 33]: > 64 µg/mL
MIC [29, 33]: ≤ 0.12 µg/mL
MIC [30, 33]: ≤ 0.12 µg/mL
Structure (SMILES): CC[C@H]1OC(=O)[C@H](C)C(=O)[C@H](C)[C@@H](O[C@@H]2O[C@H](C)C[C@H](N(C)C)[C@H]2O)[C@](C)(OC)C[C@@H](C)C(=O)[C@H](C)[C@H]2N(CCCCn3cnc(-c4cccnc4)c3)C(=O)O[C@]12C [Telithromycin (4), telithromycin]
